Active and inactive are the calls of the source. The calls are words filed in the database; no cut-off is given here.
Tested on: P388
Assay: Cytotoxicity against mouse P388 cells
Assay type: functional, cell-based

`CC1(C)C[C@@]23[C@@H]4CC(=O)[C@@H]2COC(=O)[C@]3(O)CC[C@H]41` was tested, and the Activity was “inactive”.

Reference: ChEMBL document CHEMBL1150704, “Microbial hydroxylation of quadrone to 8a-hydroxyquadrone” (J Nat Prod, 1987)
